Results as given in ChEMBL document CHEMBL2380205, “Discovery of a new class of natural product-inspired quinazolinone hybrid as potent antileishmanial agents” (J Med Chem, 2013).

Experiments:
[1] = system: Leishmania donovani; test: Antileishmanial activity against promastigotes of Leishmania donovani MHOM/IN/60/Dd8 after 72 hrs by luciferase reporter gene assay; type: functional, organism-based; conditions: MHOM/IN/60/Dd8, 72 h
[2] = (§1) Selectivity index, ratio of CC50 for mouse J774A1 cells to IC50 for amastigotes of Leishmania donovani MHOM/IN/60/Dd8 infected in mouse J-774A.1 cells; type: functional, J774.A1
[3] = Cytotoxicity against african green monkey Vero cells after 72 hrs by MTT assay; type: cell-based; conditions: chlorocebus sabaeus
[4] = Cytotoxicity against mouse J774A1 cells after 72 hrs by MTT assay; type: cell-based, J774.A1
[5] = system: Leishmania donovani; test: Antileishmanial activity against amastigotes of Leishmania donovani MHOM/IN/60/Dd8 infected in mouse J-774A.1 cells after 72 hrs by luciferase reporter gene assay; type: functional, organism-based; conditions: MHOM/IN/60/Dd8, J774.A1, 72 h
[6] = system: Leishmania donovani; test: Antileishmanial activity against amastigotes of Leishmania donovani MHOM/IN/60/Dd8 infected in golden hamster assessed as amastigote count at 50 mg/kg/day, ip administered for 5 days measured on day 7 of post last dose by Giemsa staining; type: functional; conditions: MHOM/IN/60/Dd8, ip, route intraperitoneal
[7] = Lipophilicity, log P of the compound; type: physicochemical; conditions: octanol/water
[8] = system: Leishmania donovani; test: Antileishmanial activity against amastigotes of Leishmania donovani MHOM/IN/60/Dd8 infected in golden hamster assessed as amastigote count at 40 mg/kg/day, ip administered for 5 days measured on day 7 of post last dose by Giemsa staining; type: functional, organism-based
[9] = system: J774.A1; test: as §1; type: functional

| Compound | IC50 [1] | Ratio CC50/IC50 [2] | CC50 at 72 h [3] | CC50 at 72 h [4] | IC50 [5] | inhibition in vivo at 50 mg/kg/day [6] | logP [7] | inhibition [8] | Ratio CC50/IC50 [9] |
| --- | --- | --- | --- | --- | --- | --- | --- | --- | --- |
| COc1ccc(C(Nc2ccc(C3(C)NC(=O)c4ccccc4N3)cc2)c2nnnn2C(C)(C)C)cc1 (stereo not given) | 3.05 µM | >30.65 | > 400 µM | > 400 µM | 13.1 µM | – | – | – | – |
| COc1ccc(-c2cc(-c3ccc(C4NC(=O)c5ccccc5N4)cc3)nc(N)n2)cc1 (stereo not given) | 5.79 µM | 17.64 | 124 µM | 178 µM | 10.1 µM | – | – | – | – |
| CCCNc1nc(NCCC)nc(Nc2ccc(C3(C)NC(=O)c4ccccc4N3)cc2)n1 (stereo not given) | 8.86 µM | >45.09 | > 400 µM | > 400 µM | 8.87 µM | – | – | – | – |
| CC(C)c1ccc(C(C(=O)NC2CCCCC2)N(C(=O)c2cccc(Cl)c2)c2ccc(C3(C)NC(=O)c4ccccc4N3)cc2)cc1 (stereo not given) | > 40 µM | >84.38 | > 400 µM | > 400 µM | 4.74 µM | 48% | 8.53 | – | – |
| CC1(c2ccc(NC(c3ccc(Cl)cc3)c3nnnn3C(C)(C)C)cc2)NC(=O)c2ccccc2N1 (stereo not given) | 1.21 µM | >56.65 | > 400 µM | > 400 µM | 7.06 µM | – | – | – | – |
| CC(C)(C)Nc1nc(Nc2ccc(C3(C)NC(=O)c4ccccc4N3)cc2)nc(NC(C)(C)C)n1 (stereo not given) | 1.02 µM | 11.07 | 159 µM | 60.7 µM | 5.48 µM | – | – | – | – |
| CC1(c2ccc(Nc3nc(Nc4ccccc4)nc(Nc4ccccc4)n3)cc2)NC(=O)c2ccccc2N1 (stereo not given) | 3.02 µM | – | – | – | – | – | – | – | – |
| CC(C)c1ccc(C(Nc2ccc(C3(C)NC(=O)c4ccccc4N3)cc2)c2nnnn2C2CCCCC2)cc1 (stereo not given) | 7 µM | >44.1 | > 400 µM | > 400 µM | 9.07 µM | – | – | – | – |
| CC1(c2ccc(Nc3nc(NCc4ccco4)nc(NCc4ccco4)n3)cc2)NC(=O)c2ccccc2N1 (stereo not given) | 13.2 µM | – | – | – | > 20 µM | – | – | – | – |
| CC1(c2ccc(N(C(=O)c3cccc(Cl)c3)C(C(=O)NC3CCCCC3)c3ccc(Cl)cc3)cc2)NC(=O)c2ccccc2N1 (stereo not given) | 39.5 µM | – | – | – | 15.8 µM | – | – | – | – |
| COc1cc(-c2cc(-c3ccc(C4NC(=O)c5ccccc5N4)cc3)nc(N)n2)cc(OC)c1OC (stereo not given) | 3.44 µM | 26.97 | 85.9 µM | 103 µM | 3.83 µM | – | – | – | – |
| CC1(c2ccc(NC(c3ccncc3)c3nnnn3C(C)(C)C)cc2)NC(=O)c2ccccc2N1 (stereo not given) | > 40 µM | – | – | – | > 40 µM | – | – | – | – |
| CC(C)(C)n1nnnc1C(c1ccc(C2NC(=O)c3ccccc3N2)cc1)N1CCc2ccccc2C1 (stereo not given) | 1.27 µM | – | – | – | > 40 µM | – | – | – | – |
| CC1(c2ccc(Nc3nc(N4CCOCC4)nc(N4CCOCC4)n3)cc2)NC(=O)c2ccccc2N1 (stereo not given) | > 40 µM | – | – | – | > 40 µM | – | – | – | – |
| Nc1nc(-c2ccc(Cl)cc2)cc(-c2ccc(C3NC(=O)c4ccccc4N3)cc2)n1 (stereo not given) | 3.07 µM | 43.46 | 323 µM | 82.2 µM | 1.89 µM | 35.8% | 4.49 | – | – |
| CC(C)(C)n1nnnc1C(NCc1ccccc1)c1ccc(C2NC(=O)c3ccccc3N2)cc1 (stereo not given) | 3.64 µM | – | – | – | > 40 µM | – | – | – | – |
| CCCCNC(c1ccc(C2NC(=O)c3ccccc3N2)cc1)c1nnnn1C(C)(C)C (stereo not given) | 5.59 µM | – | – | – | > 40 µM | – | – | – | – |
| CC1(c2ccc(Nc3nc(N4CCCc5ccccc54)nc(N4CCCc5ccccc54)n3)cc2)NC(=O)c2ccccc2N1 (stereo not given) | 33.2 µM | – | – | – | > 40 µM | – | – | – | – |
| CC1(c2ccc(NC(c3ccc(Br)cc3)c3nnnn3C3CCCCC3)cc2)NC(=O)c2ccccc2N1 (stereo not given) | > 40 µM | >42.46 | > 400 µM | > 400 µM | 9.42 µM | – | – | – | – |
| CCCCCNc1nc(NCCCCC)nc(Nc2ccc(C3(C)NC(=O)c4ccccc4N3)cc2)n1 (stereo not given) | 7.46 µM | >165.29 | > 400 µM | > 400 µM | 2.42 µM | 43% | 7.57 | – | – |
| CC1(c2ccc(Nc3nc(NCc4ccccc4)nc(NCc4ccccc4)n3)cc2)NC(=O)c2ccccc2N1 (stereo not given) | 6.38 µM | >59.52 | 359 µM | > 400 µM | 6.72 µM | 44.8% | 6.49 | – | – |
| COc1ccc(C(Nc2ccc(C3(C)NC(=O)c4ccccc4N3)cc2)c2nnnn2C(C)(C)C)c2ccccc12 (stereo not given) | 2.56 µM | – | – | – | 15.5 µM | – | – | – | – |
| Nc1nc(-c2ccc(C3NC(=O)c4ccccc4N3)cc2)cc(-c2ccccc2Cl)n1 (stereo not given) | 9 µM | – | – | – | 15.3 µM | – | – | – | – |

| Compound | IC50 [1] | Ratio CC50/IC50 [2] | CC50 at 72 h [3] | CC50 at 72 h [4] | IC50 [5] | inhibition in vivo at 50 mg/kg/day [6] | logP [7] | inhibition [8] | Ratio CC50/IC50 [9] |
| --- | --- | --- | --- | --- | --- | --- | --- | --- | --- |
| Nc1nc(-c2ccc(Br)cc2)cc(-c2ccc(C3NC(=O)c4ccccc4N3)cc2)n1 (stereo not given) | 2.82 µM | 17.82 | > 400 µM | 125 µM | 7.02 µM | – | – | – | – |
| COc1ccc(C(C(=O)NC2CCCCC2)N(C(=O)c2cccc(Cl)c2)c2ccc(C3(C)NC(=O)c4ccccc4N3)cc2)cc1 (stereo not given) | > 40 µM | – | – | – | 15.5 µM | – | – | – | – |
| Nc1nc(-c2ccc(F)cc2)cc(-c2ccc(C3NC(=O)c4ccccc4N3)cc2)n1 (stereo not given) | 9.83 µM | – | – | – | 24.7 µM | – | – | – | – |
| CCCCCNC(c1ccc(C2NC(=O)c3ccccc3N2)cc1)c1nnnn1C(C)(C)C (stereo not given) | 1.91 µM | – | – | – | > 40 µM | – | – | – | – |
| COc1ccc(CNc2nc(NCc3ccc(OC)cc3)nc(Nc3ccc(C4(C)NC(=O)c5ccccc5N4)cc3)n2)cc1 (stereo not given) | > 40 µM | – | – | – | > 40 µM | – | – | – | – |
| COc1ccc(C(C(=O)NC(C)(C)C)N(C(=O)c2cccc(Cl)c2)c2ccc(C3(C)NC(=O)c4ccccc4N3)cc2)cc1 (stereo not given) | > 40 µM | – | – | – | 29.6 µM | – | – | – | – |
| CC1(c2ccc(Nc3nc(N4CCC(O)CC4)nc(N4CCC(O)CC4)n3)cc2)NC(=O)c2ccccc2N1 (stereo not given) | > 40 µM | – | – | – | > 40 µM | – | – | – | – |
| CC(C)(C)NC(=O)C(c1ccc(Br)cc1)N(C(=O)c1cccc(Cl)c1)c1ccc(C2(C)NC(=O)c3ccccc3N2)cc1 (stereo not given) | > 40 µM | – | – | – | 15.6 µM | – | – | – | – |
| Sodium stibogluconate | – | – | – | – | – | – | – | 86.9% | > 8.57 |
| COc1ccc(C(Nc2ccc(C3(C)NC(=O)c4ccccc4N3)cc2)c2nnnn2C2CCCCC2)cc1 (stereo not given) | > 40 µM | – | – | – | 16.8 µM | – | – | – | – |
| CC1(c2ccc(Nc3nc(NCCCN4CCOCC4)nc(NCCCN4CCOCC4)n3)cc2)NC(=O)c2ccccc2N1 (stereo not given) | > 40 µM | – | – | – | > 40 µM | – | – | – | – |
| COc1cc(C(Nc2ccc(C3(C)NC(=O)c4ccccc4N3)cc2)c2nnnn2C(C)(C)C)cc(OC)c1OC (stereo not given) | > 40 µM | – | – | – | > 40 µM | – | – | – | – |
| CC1(c2ccc(NC(c3ccc(F)cc3)c3nnnn3C(C)(C)C)cc2)NC(=O)c2ccccc2N1 (stereo not given) | 3.68 µM | – | – | – | > 20 µM | – | – | – | – |
| COc1cccc(-c2cc(-c3ccc(C4NC(=O)c5ccccc5N4)cc3)nc(N)n2)c1OC (stereo not given) | 4.23 µM | >90.29 | > 400 µM | > 400 µM | 4.43 µM | – | – | – | – |
| CC(C)c1ccc(C(Nc2ccc(C3(C)NC(=O)c4ccccc4N3)cc2)c2nnnn2C(C)(C)C)cc1 (stereo not given) | 4.02 µM | >51.54 | > 400 µM | > 400 µM | 7.76 µM | 54% | 6.03 | – | – |
| CC1(c2ccc(NC(c3cccc4ccccc34)c3nnnn3C(C)(C)C)cc2)NC(=O)c2ccccc2N1 (stereo not given) | 3.92 µM | – | – | – | > 20 µM | – | – | – | – |
| Nc1nc(-c2ccccc2)cc(-c2ccc(C3NC(=O)c4ccccc4N3)cc2)n1 (stereo not given) | 4.04 µM | – | – | – | 17 µM | – | – | – | – |
| CC1(c2ccc(NC(c3ccc(Br)cc3)c3nnnn3C(C)(C)C)cc2)NC(=O)c2ccccc2N1 (stereo not given) | 24.1 µM | 47.28 | > 400 µM | 400 µM | 8.46 µM | – | – | – | – |
| CC1(c2ccc(NC(c3ccc(Cl)cc3)c3nnnn3C3CCCCC3)cc2)NC(=O)c2ccccc2N1 (stereo not given) | 39.4 µM | >35.3 | > 400 µM | > 400 µM | 11.3 µM | – | – | – | – |
| CCCCNc1nc(NCCCC)nc(Nc2ccc(C3(C)NC(=O)c4ccccc4N3)cc2)n1 (stereo not given) | 7.69 µM | 8.35 | 142 µM | 40.1 µM | 4.8 µM | – | – | – | – |
| CC1(c2ccc(Nc3nc(N4CCCCCC4)nc(N4CCCCCC4)n3)cc2)NC(=O)c2ccccc2N1 (stereo not given) | 6.02 µM | 91.64 | > 400 µM | 237 µM | 2.59 µM | 37.4% | – | – | – |
| CC(C)c1ccc(C(C(=O)NC(C)(C)C)N(C(=O)c2cccc(Cl)c2)c2ccc(C3(C)NC(=O)c4ccccc4N3)cc2)cc1 (stereo not given) | > 40 µM | >33.25 | > 400 µM | > 400 µM | 12 µM | – | – | – | – |
| CC(C)(C)NC(=O)C(c1ccc(Cl)cc1)N(C(=O)c1cccc(Cl)c1)c1ccc(C2(C)NC(=O)c3ccccc3N2)cc1 (stereo not given) | > 40 µM | >29.67 | > 400 µM | > 400 µM | 13.5 µM | – | – | – | – |
